# From patent US11339419B2, “Scavenger protein(s) for improved preservation of analyte detection sensor(s) and method(s) of use thereof” (Siemens Healthcare Diagnostics Inc., priority 2017, dated 2022)
# Values joined by “and” are separate entries in the source; they are usually repeats but may differ in a detail not shown here. Identical values can stand only once.
# Experiments:
# [1] = test system: sarcosine oxidase (BBI Solutions); experiment: BBI Solutions Sarcosine Oxidase Enzyme Absorbance with BSA and MIT; type: biochemical; conditions: days 4 and 14; only BSA, no MIT
# Experimental: Tables 1-4 depict aqueous solutions comprising varying concentrations of BSA (at concentrations of 0 mg/mL, 5 mg/mL, 25 mg/mL, and 50 mg/mL), varying concentrations of MIT (at concentrations of 50 parts per million and 100 parts per million) or Proclin™ 300 (at concentrations of 0.7% and 1.4%) biocides over a particular time period (measurements were taken at days 0, 4, and 14 after exposure of the enzyme(s) to the aqueous solutions) and the associated enzyme absorbance measurements for sarcosine oxidase (commercially offered for sale by BBI Solutions and Toyobo). Absorbance measurements of the sarcosine oxidase enzyme(s) were taken via spectrophotometer for each aqueous solution (represented as columns 1-5 in Tables 1-4—column 6 is a blank), the absorbance being directly proportional to the enzyme activity being measured-which for Tables 1-4 is sarcosine oxidase enzyme activity. Accordingly, the higher the absorbance measurement, the higher the enzyme activity of sarcosine oxidase. Columns 7-11 represent five replicate readings in which the aqueous solution only contains BSA (i.e., there is no biocide(s) present in the aqueous solution). In addition, the mean values, standard deviations, and coefficients of variation are also presented for the enzyme activity/absorbance of each aqueous solution. All measurements were taken at 37° C.
# As depicted below in Table 1, sarcosine oxidase (commercially offered for sale by BBI Solutions) enzyme activity is measured against various concentrations of MIT (biocide) and BSA (scavenger protein) over a period of 14 days (with absorbance measurements taken at 0, 4, and 14 days) for five different aqueous solutions (represented as columns 1-5—column 6 is a blank).
# [2] = test system: creatininase (BBI Solutions); experiment: BBI Solutions Creatininase Enzyme Absorbance with BSA and MIT; type: biochemical
# Experimental: Table 5-8 depict aqueous solutions comprising varying concentrations of BSA (at concentrations of 0 mg/mL, 5 mg/mL, 25 mg/mL, and 50 mg/mL), varying concentrations of MIT (at concentrations of 50 parts per million and 100 parts per million) or Proclin™ 300 (at concentrations of 0.7% and 1.4%) biocide over a particular time period (measurements were taken at days 0, 4, and 14 after exposure of the enzyme(s) to the particular aqueous solutions) and the associated enzyme absorbance measurements for creatininase (commercially offered for sale by BBI Solutions and Toyobo). Absorbance measurements of the creatininase enzyme(s) were taken via spectrophotometer for each aqueous solution (represented as columns 1-5 in Tables 5-8—column 6 is a blank), the absorbance being directly proportional to the enzyme activity being measured-which for Tables 5-8 is creatininase enzyme activity. Accordingly, the higher the absorbance measurement, the higher the enzyme activity of creatininase. Columns 7-11 represent five replicate readings in which the solution only contains BSA (i.e., there is no biocide(s) present in the solution). In addition, the mean values, standard deviations, and coefficients of variation are all presented for the enzyme activity/absorbance of each aqueous solution. All measurements were taken at 37° C.
# As depicted in Table 5, creatininase (commercially offered for sale by BBI Solutions) enzyme activity is measured against various concentrations of MIT (biocide) and BSA (scavenger protein) over a period of 14 days (with absorbance measurement taken at 0, 4, and 14 days) for five different aqueous solutions (represented as columns 1-5—column 6 is a blank).
# [3] = Day 0, 5 mg/mL BSA, no MIT (row of 50 ppm MIT)
# [4] = Day 0, 5 mg/mL BSA, no MIT (row of 100 ppm MIT)
# [5] = Day 0, 25 mg/mL BSA, no MIT (row of 50 ppm MIT)
# [6] = Day 0, 25 mg/mL BSA, no MIT (row of 100 ppm MIT)
# [7] = Day 0, 50 mg/mL BSA, no MIT (row of 50 ppm MIT)
# [8] = Day 0, 50 mg/mL BSA, no MIT (row of 100 ppm MIT)
# [9] = Day 0, 50 ppm MIT, 25 mg/mL BSA
# [10] = Day 0, 50 ppm MIT, 50 mg/mL BSA
# [11] = Day 4, 5 mg/mL BSA, no MIT (row of 50 ppm MIT)
# [12] = Day 4, 5 mg/mL BSA, no MIT (row of 100 ppm MIT)
# [13] = Day 4, 25 mg/mL BSA, no MIT (row of 50 ppm MIT)
# [14] = Day 4, 25 mg/mL BSA, no MIT (row of 100 ppm MIT)
# [15] = Day 4, 50 mg/mL BSA, no MIT (row of 50 ppm MIT)
# [16] = Day 4, 50 mg/mL BSA, no MIT (row of 100 ppm MIT)
# [17] = Day 14, 5 mg/mL BSA, no MIT (row of 50 ppm MIT)
# [18] = Day 14, 5 mg/mL BSA, no MIT (row of 100 ppm MIT)
# [19] = Day 14, 25 mg/mL BSA, no MIT (row of 50 ppm MIT)
# [20] = Day 14, 25 mg/mL BSA, no MIT (row of 100 ppm MIT)
# [21] = Day 14, 50 mg/mL BSA, no MIT (row of 50 ppm MIT)
# [22] = Day 14, 50 mg/mL BSA, no MIT (row of 100 ppm MIT)
substance,measurement,setting,value
bovine serum albumin [BSA],"sarcosine oxidase absorbance, solutions 7-11",[1],increased (or at least maintained)
same,"Creatininase Enzyme Absorbance, columns 7-11",[2]; [3],0.717 and 0.707 and 0.75 and 0.728
same,MEAN (columns 7-11),[2]; [3],0.51
same,"Creatininase Enzyme Absorbance, columns 7-11",[2]; [4],0.767 and 0.759 and 0.781 and 0.761 and 0.773
same,MEAN (columns 7-11),[2]; [4],0.56
same,"Creatininase Enzyme Absorbance, columns 7-11",[2]; [5],0.736 and 0.712 and 0.709 and 0.752 and 0.746
same,MEAN (columns 7-11),[2]; [5],0.52
same,"Creatininase Enzyme Absorbance, columns 7-11",[2]; [6],0.688 and 0.694 and 0.72 and 0.733 and 0.705
same,MEAN (columns 7-11),[2]; [6],0.50
same,"Creatininase Enzyme Absorbance, columns 7-11",[2]; [7],0.759 and 0.723 and 0.742 and 0.773 and 0.777
same,MEAN (columns 7-11),[2]; [7],0.54
same,"Creatininase Enzyme Absorbance, columns 7-11",[2]; [8],0.661 and 0.68 and 0.708 and 0.702 and 0.686
same,MEAN (columns 7-11),[2]; [8],0.48
same,% Bias,"[2]; Day 0, 50 ppm MIT vs no MIT, 5 mg/mL BSA",6.0%
same,% Bias,"[2]; Day 0, 50 ppm MIT vs no MIT, 25 mg/mL BSA",4.8%
same,% Bias,"[2]; Day 0, 50 ppm MIT vs no MIT, 50 mg/mL BSA",3.6%
same,Creatininase Enzyme Absorbance,"[2]; Day 0, 50 ppm MIT, 5 mg/mL BSA",0.774 and 0.737 and 0.726 and 0.733 and 0.74
same,MEAN,"[2]; Day 0, 50 ppm MIT, 5 mg/mL BSA",0.54
same,Creatininase Enzyme Absorbance,[2]; [9],0.751 and 0.713 and 0.818 and 0.733
same,MEAN,[2]; [9],0.54
same,Creatininase Enzyme Absorbance,[2]; [10],0.773
same,MEAN,[2]; [10],0.56
same,% Bias,"[2]; Day 0, 100 ppm MIT vs no MIT, 5 mg/mL BSA",6.8%
same,% Bias,"[2]; Day 0, 100 ppm MIT vs no MIT, 25 mg/mL BSA",8.0%
same,% Bias,"[2]; Day 0, 100 ppm MIT vs no MIT, 50 mg/mL BSA",3.7%
same,MEAN,"[2]; Day 0, 100 ppm MIT, 5 mg/mL BSA",0.59
same,MEAN,"[2]; Day 0, 100 ppm MIT, 25 mg/mL BSA",0.54
same,MEAN,"[2]; Day 0, 100 ppm MIT, 50 mg/mL BSA",0.49
same,"Creatininase Enzyme Absorbance, columns 7-11",[2]; [11],0.95 and 0.906 and 0.917 and 0.926 and 0.911
same,MEAN (columns 7-11),[2]; [11],0.71
same,"Creatininase Enzyme Absorbance, columns 7-11",[2]; [12],0.927 and 0.89 and 0.906 and 0.925 and 0.892
same,MEAN (columns 7-11),[2]; [12],0.69
same,"Creatininase Enzyme Absorbance, columns 7-11",[2]; [13],0.821 and 0.794 and 0.77 and 0.793
same,MEAN (columns 7-11),[2]; [13],0.59
same,"Creatininase Enzyme Absorbance, columns 7-11",[2]; [14],0.793 and 0.779 and 0.783 and 0.8 and 0.814
same,MEAN (columns 7-11),[2]; [14],0.58
same,"Creatininase Enzyme Absorbance, columns 7-11",[2]; [15],0.621 and 0.592 and 0.597 and 0.625 and 0.622
same,MEAN (columns 7-11),[2]; [15],0.40
same,"Creatininase Enzyme Absorbance, columns 7-11",[2]; [16],0.647 and 0.629 and 0.631 and 0.657 and 0.637
same,MEAN (columns 7-11),[2]; [16],0.43
same,% Bias,"[2]; Day 4, 50 ppm MIT vs no MIT, 5 mg/mL BSA",3.8%
same,% Bias,"[2]; Day 4, 50 ppm MIT vs no MIT, 25 mg/mL BSA",4.5%
same,% Bias,"[2]; Day 4, 50 ppm MIT vs no MIT, 50 mg/mL BSA",14.7%
same,MEAN,"[2]; Day 4, 50 ppm MIT, 5 mg/mL BSA",0.73
same,MEAN,"[2]; Day 4, 50 ppm MIT, 25 mg/mL BSA",0.61
same,MEAN,"[2]; Day 4, 50 ppm MIT, 50 mg/mL BSA",0.46
same,% Bias,"[2]; Day 4, 100 ppm MIT vs no MIT, 5 mg/mL BSA",2.3%
same,% Bias,"[2]; Day 4, 100 ppm MIT vs no MIT, 25 mg/mL BSA",2.7%
same,% Bias,"[2]; Day 4, 100 ppm MIT vs no MIT, 50 mg/mL BSA",14.0%
same,MEAN,"[2]; Day 4, 100 ppm MIT, 5 mg/mL BSA",0.71
same,MEAN,"[2]; Day 4, 100 ppm MIT, 25 mg/mL BSA",0.60
same,MEAN,"[2]; Day 4, 100 ppm MIT, 50 mg/mL BSA",0.49
same,"Creatininase Enzyme Absorbance, columns 7-11",[2]; [17],1.062 and 1.055 and 1.027 and 1.067 and 1.069
same,MEAN (columns 7-11),[2]; [17],0.80
same,"Creatininase Enzyme Absorbance, columns 7-11",[2]; [18],1.061 and 1.054 and 1.018 and 1.051
same,MEAN (columns 7-11),[2]; [18],0.79
same,"Creatininase Enzyme Absorbance, columns 7-11",[2]; [19],0.931 and 0.918 and 0.882 and 0.905 and 0.92
same,MEAN (columns 7-11),[2]; [19],0.65
same,"Creatininase Enzyme Absorbance, columns 7-11",[2]; [20],0.91 and 0.907 and 0.879 and 0.898 and 0.905
same,MEAN (columns 7-11),[2]; [20],0.64
same,"Creatininase Enzyme Absorbance, columns 7-11",[2]; [21],0.745 and 0.73 and 0.711 and 0.727 and 0.732
same,MEAN (columns 7-11),[2]; [21],0.47
same,"Creatininase Enzyme Absorbance, columns 7-11",[2]; [22],0.74 and 0.737 and 0.713 and 0.724
same,MEAN (columns 7-11),[2]; [22],0.47
same,% Bias,"[2]; Day 14, 50 ppm MIT vs no MIT, 5 mg/mL BSA",1.8%
same,% Bias,"[2]; Day 14, 50 ppm MIT vs no MIT, 25 mg/mL BSA",−0.5%
same,% Bias,"[2]; Day 14, 50 ppm MIT vs no MIT, 50 mg/mL BSA",−2.4%
same,MEAN,"[2]; Day 14, 50 ppm MIT, 5 mg/mL BSA",0.81
same,MEAN,"[2]; Day 14, 50 ppm MIT, 25 mg/mL BSA",0.65
same,MEAN,"[2]; Day 14, 50 ppm MIT, 50 mg/mL BSA",0.46
same,% Bias,"[2]; Day 14, 100 ppm MIT vs no MIT, 5 mg/mL BSA",0.3%
same,% Bias,"[2]; Day 14, 100 ppm MIT vs no MIT, 25 mg/mL BSA",−1.0%
same,% Bias,"[2]; Day 14, 100 ppm MIT vs no MIT, 50 mg/mL BSA",0.7%
same,MEAN,"[2]; Day 14, 100 ppm MIT, 5 mg/mL BSA",0.79
same,MEAN,"[2]; Day 14, 100 ppm MIT, 25 mg/mL BSA",0.64
same,MEAN,"[2]; Day 14, 100 ppm MIT, 50 mg/mL BSA",0.47
same,absorbance of the creatininase enzyme compared to samples containing 0 mg/mL of BSA,"[2]; days 4 and 14, 5, 25 and 50 mg/mL BSA, with MIT",increased absorbance
same,"creatininase absorbance, solutions 7-11","[2]; days 4 and 14, only BSA, no MIT",increased (or at least maintained)
same,BSA concentration at which the creatininase absorbance measurement is highest,"[2]; days 4 and 14, with MIT",5 mg/mL
